From patent US20040186021A1, “Substituted benzo-nitro-heterocycles” (priority 2001, published 2004)

Key:
[1] = logP determination by HPLC (reversed-phase column C 18), EC Directive 79/831 Annex V.A8; type: physicochemical; conditions: for chromatographic logP: reversed-phase HPLC column (C 18), at pH=2; for logP a): acetonitrile, 43° C.
Experimental: LogP values given in Table 1 were determined in accordance with EC Directive 79/831 Annex V.A8 by HPLC (High Performance Liquid Chromatography) using a reversed-phase column (C 18). Temperature: 43° C. (a) Mobile phases for the determination in the acidic range: 0.1% aqueous phosphoric acid, acetonitrile; linear gradient from 10% acetonitrile to 90% acetonitrile—the corresponding measurement results in Table 1 are marked ^a). (b) Mobile phases for the determination in the neutral range: 0.01 molar aqueous phosphate buffer solution, acetonitrile; linear gradient from 10% acetonitrile to 90% acetonitrile—the corresponding measurement results in Table 1 are marked ^b). Calibration was carried out using unbranched alkan-2-ones (having 3 to 16 carbon atoms) with known logP values (determination of the logP values by the retention times using linear interpolation between two successive alkanones).

weeds [2] = test: Post-emergence test (Example B); type: in vivo; conditions: test plants of 5-15 cm sprayed, rated after three weeks
Experimental: To produce a suitable preparation of active compound, one part by weight of active compound is mixed with the stated amount of solvent, the stated amount of emulsifier is added and the concentrate is diluted with water to the desired concentration.
Test plants of a height of 5-15 cm are sprayed with the preparation of active compounds such that the particular amounts of active compounds desired are applied per unit area. The concentration of the spray liquor is chosen such that the particular amounts of active compounds desired are applied in 1000 l of water/ha.
After three weeks, the degree of damage to the plants is rated in % damage in comparison to the development of the untreated control.
0%=no effect (like untreated control)

weeds [3] = test: Pre-emergence test (Example A); type: in vivo; conditions: soil sprayed 24 hours after sowing, rated after three weeks
Experimental: Pre-Emergence Test [table] To produce a suitable preparation of active compound, one part by weight of active compound is mixed with the stated amount of solvent, the stated amount of emulsifier is added and the concentrate is diluted with water to the desired concentration. Seeds of the test plants are sown in normal soil. After 24 hours, the soil is sprayed with the preparation of active compounds such that the particular amount of active compound desired is applied per unit area. The concentration of active compound in the spray liquor is chosen such that the particular amount of active compound desired is applied in 1000 litres of water per hectare. After three weeks, the degree of damage to the plants is rated in % damage in comparison to the development of untreated control. The figures denote: 0%=no effect (like untreated control) 100%=total destruction

[4] = Table 1; a) acidic range: 0.1% aqueous phosphoric acid
[5] = Table 2, compounds of formula (II); a) acidic range: 0.1% aqueous phosphoric acid

Structure (SMILES) | action against weeds (degree of damage to the plants) (weeds [2]) | action against weeds (degree of damage to the plants) (weeds [3]) | logP a) [1, 4] | further results
O=c1[nH]c2cc(-n3c(=O)cc(C(F)(F)F)[nH]c3=O)c(F)cc2s1 [3-(6-fluoro-2,3-dihydro-2-oxo-1,3-benzothiazol-5-yl)-6-trifluoromethyl-2,4(1H,3H)-pyrimidinedione] |  |  |  | chromatographic logP [1]: 1.48
CCOC(=O)CN1C(=O)COc2ccc(-n3c(=O)cc(C(F)(F)F)n(N)c3=O)cc21 [Example 1, ethyl 6-(3-amino-3,6-dihydro-2,6-dioxo-4-trifluoromethyl-1 (2H)-pyrimidynyl)-2,3-dihydro-3-oxo-4H-1,4-benzoxazine-4-acetate] | very strong action against weeds | very strong action against weeds |  | chromatographic logP [1]: 1.9
CCOC(=O)n1c(=O)sc2cc(F)c(-n3c(=O)cc(C(F)(F)F)n(N)c3=O)cc21 [Example 2, ethyl 5-(3-amino-3,6-dihydro-2,6-dioxo-4-trifluoromethyl-1(2H)-pyrimidynyl)-6-fluoro-2-oxo-3(2H)-benzothiazole carboxylate] |  |  |  | chromatographic logP [1]: 2.44
CS(=O)(=O)n1c(=O)sc2cc(F)c(-n3c(=O)cc(C(F)(F)F)n(N)c3=O)cc21 [Example 3, 1-amino-3-(6-fluoro-2,3-dihydro-3-methylsulphonyl-2-oxo-5-benzothiazolyl)-6-trifluoromethyl-2,4(1H,3H)-pyrimidinedione] |  |  |  | chromatographic logP [1]: 2.16
N#CCn1c(=O)sc2cc(F)c(-n3c(=O)cc(C(F)(F)F)n(N)c3=O)cc21 [Example 4] |  |  | 1.97^a) | 
N#CCN1C(=O)COc2cc(F)c(-n3c(=O)cc(C(F)(F)F)n(N)c3=O)cc21 [Example 5] | very strong action against weeds | very strong action against weeds | 1.83^a) | 
N#CCN1C(=O)COc2ccc(-n3c(=O)cc(C(F)(F)F)n(N)c3=O)cc21 [Example 6] | very strong action against weeds | very strong action against weeds | 1.57^a) | 
COC(=O)CN1C(=O)COc2cc(F)c(-n3c(=O)cc(C(F)(F)F)n(N)c3=O)cc21 [Example 7] | very strong action against weeds | very strong action against weeds | 1.90^a) | 
CCOC(=O)CN1C(=O)COc2cc(F)c(-n3c(=O)cc(C(F)(F)F)n(N)c3=O)cc21 [Example 8] | very strong action against weeds | very strong action against weeds | 2.14^a) | 
CC(C)(C)OC(=O)CN1C(=O)COc2cc(F)c(-n3c(=O)cc(C(F)(F)F)n(N)c3=O)cc21 [Example 9] | very strong action against weeds | very strong action against weeds | 2.60^a) | 
CC(C)OC(=O)CN1C(=O)COc2cc(F)c(-n3c(=O)cc(C(F)(F)F)n(N)c3=O)cc21 [Example 10] | very strong action against weeds | very strong action against weeds | 2.38^a) | 
COC(=O)CN1C(=O)COc2ccc(-n3c(=O)cc(C(F)(F)F)n(N)c3=O)cc21 [Example 11] | very strong action against weeds | very strong action against weeds |  | 
CC(C)OC(=O)CN1C(=O)COc2ccc(-n3c(=O)cc(C(F)(F)F)n(N)c3=O)cc21 [Example 12] | very strong action against weeds | very strong action against weeds | 2.14^a) | 
CC(C)(C)OC(=O)CN1C(=O)COc2ccc(-n3c(=O)cc(C(F)(F)F)n(N)c3=O)cc21 [Example 13] |  |  | 2.37^a) | 
CC(=O)n1c(=O)sc2cc(F)c(-n3c(=O)cc(C(F)(F)F)n(N)c3=O)cc21 [Example 14] |  |  | 2.36^a) | 
COC(=O)C=C(CCl)n1c(=O)sc2cc(F)c(-n3c(=O)cc(C(F)(F)F)n(N)c3=O)cc21 [Example 22] |  |  | 2.46^a) | 
CC(C)COC(=O)n1c(=O)sc2cc(F)c(-n3c(=O)cc(C(F)(F)F)n(N)c3=O)cc21 [Example 23] |  |  | 3.17^a) | 
CCOC(=O)C=C(n1c(=O)sc2cc(F)c(-n3c(=O)cc(C(F)(F)F)n(N)c3=O)cc21)C(F)(F)F [Example 24] |  |  | 2.98^a) | 
CCOC(=O)C=CCn1c(=O)sc2cc(F)c(-n3c(=O)cc(C(F)(F)F)n(N)c3=O)cc21 [Example 25] |  |  | 2.51^a) | 
N#Cn1c(=O)sc2cc(F)c(-n3c(=O)cc(C(F)(F)F)n(N)c3=O)cc21 [Example 30] |  |  | 2.19^a) | 
Nn1c(C(F)(F)F)cc(=O)n(-c2cc3[nH]c(=O)sc3cc2F)c1=O [II-1, 1-amino-3-(6-fluoro-2,3-dihydro-2-oxo-1,3-benzothiazol-5-yl)-6-trifluoromethyl-2,4(1H,3H)-pyrimidinedione] |  |  |  | chromatographic logP [1]: 1.66
Nn1c(C(F)(F)F)cc(=O)n(-c2ccc3c(c2)NC(=O)CO3)c1=O [II-2] |  |  |  | logP a) [1, 5]: logP = 1.22^a)
Nn1c(C(F)(F)F)cc(=O)n(-c2cc3c(cc2F)OCC(=O)N3)c1=O [II-3] |  |  |  | logP a) [1, 5]: logP = 1.57^a)
